From PubChem BioAssay AID1259407 (Chemical Carcinogenesis Research Information System (CCRIS), 2018)
The source made the active and inactive calls. The rule behind the calls is not given here.

Test system: CCRIS mutagenicity, Ames/micronucleus/aberration tests
Assay: CCRIS mutagenicity studies
[1] = Test System: AMES SALMONELLA TYPHIMURIUM, Strain/Indicator: TA98, Metabolic Activation: NONE, Method: STANDARD PLATE
[2] = Test System: AMES SALMONELLA TYPHIMURIUM, Strain/Indicator: TA100, Metabolic Activation: NONE, Method: STANDARD PLATE

C1CCC2CCCCC2C1 (stereo not given)
mutagenic call (End Point: IN VIVO MICRONUCLEUS, Test System: PERIPHERAL BLOOD LYMPHOCYTES, Species: MOUSE, Strain/Sex: B6C3F1/FEMALE, Route: INHALATION): inactive; negative
mutagenic call (End Point: IN VIVO MICRONUCLEUS, Test System: PERIPHERAL BLOOD LYMPHOCYTES, Species: MOUSE, Strain/Sex: B6C3F1/MALE, Route: INHALATION): active; positive
mutagenic call (Test System: AMES SALMONELLA TYPHIMURIUM, Strain/Indicator: TA97, Metabolic Activation: HAMSTER, LIVER, S-9 (10%), AROCLOR 1254, Method: PREINCUBATION): inactive; negative
mutagenic call (Test System: AMES SALMONELLA TYPHIMURIUM, Strain/Indicator: TA97, Metabolic Activation: HAMSTER, LIVER, S-9 (30%), AROCLOR 1254, Method: PREINCUBATION): inactive; negative
mutagenic call (Test System: AMES SALMONELLA TYPHIMURIUM, Strain/Indicator: TA97, Metabolic Activation: NONE, Method: PREINCUBATION): inactive; negative
mutagenic call (Test System: AMES SALMONELLA TYPHIMURIUM, Strain/Indicator: TA97, Metabolic Activation: RAT, LIVER, S-9 (10%), AROCLOR 1254, Method: PREINCUBATION): inactive; negative
mutagenic call (Test System: AMES SALMONELLA TYPHIMURIUM, Strain/Indicator: TA97, Metabolic Activation: RAT, LIVER, S-9 (30%), AROCLOR 1254, Method: PREINCUBATION): inactive; negative
mutagenic call (Test System: AMES SALMONELLA TYPHIMURIUM, Strain/Indicator: TA98, Metabolic Activation: HAMSTER, LIVER, S-9 (10%), AROCLOR 1254, Method: PREINCUBATION): inactive; negative
mutagenic call (Test System: AMES SALMONELLA TYPHIMURIUM, Strain/Indicator: TA98, Metabolic Activation: HAMSTER, LIVER, S-9 (30%), AROCLOR 1254, Method: PREINCUBATION): inactive; negative
mutagenic call (Test System: AMES SALMONELLA TYPHIMURIUM, Strain/Indicator: TA98, Metabolic Activation: HAMSTER, LIVER, S-9, AROCLOR 1254, Method: STANDARD PLATE): inactive; negative
mutagenic call (Test System: AMES SALMONELLA TYPHIMURIUM, Strain/Indicator: TA98, Metabolic Activation: NONE, Method: PREINCUBATION): inactive; negative
mutagenic call [1]: inactive; negative
mutagenic call (Test System: AMES SALMONELLA TYPHIMURIUM, Strain/Indicator: TA98, Metabolic Activation: RAT, LIVER, S-9 (10%), AROCLOR 1254, Method: PREINCUBATION): inactive; negative
mutagenic call (Test System: AMES SALMONELLA TYPHIMURIUM, Strain/Indicator: TA98, Metabolic Activation: RAT, LIVER, S-9 (30%), AROCLOR 1254, Method: PREINCUBATION): inactive; negative
mutagenic call (Test System: AMES SALMONELLA TYPHIMURIUM, Strain/Indicator: TA98, Metabolic Activation: RAT, LIVER, S-9, AROCLOR 1254, Method: STANDARD PLATE): inactive; negative
mutagenic call (Test System: AMES SALMONELLA TYPHIMURIUM, Strain/Indicator: TA100, Metabolic Activation: HAMSTER, LIVER, S-9 (10%), AROCLOR 1254, Method: PREINCUBATION): inactive; negative
mutagenic call (Test System: AMES SALMONELLA TYPHIMURIUM, Strain/Indicator: TA100, Metabolic Activation: HAMSTER, LIVER, S-9 (30%), AROCLOR 1254, Method: PREINCUBATION): inactive; negative
mutagenic call (Test System: AMES SALMONELLA TYPHIMURIUM, Strain/Indicator: TA100, Metabolic Activation: HAMSTER, LIVER, S-9, AROCLOR 1254, Method: STANDARD PLATE): inactive; negative
mutagenic call (Test System: AMES SALMONELLA TYPHIMURIUM, Strain/Indicator: TA100, Metabolic Activation: NONE, Method: PREINCUBATION): inactive; negative; precipitation occurred at 333 ug/plate
mutagenic call [2]: inactive; negative
mutagenic call (Test System: AMES SALMONELLA TYPHIMURIUM, Strain/Indicator: TA100, Metabolic Activation: RAT, LIVER, S-9 (10%), AROCLOR 1254, Method: PREINCUBATION): inactive; negative
mutagenic call (Test System: AMES SALMONELLA TYPHIMURIUM, Strain/Indicator: TA100, Metabolic Activation: RAT, LIVER, S-9 (30%), AROCLOR 1254, Method: PREINCUBATION): inactive; negative
mutagenic call (Test System: AMES SALMONELLA TYPHIMURIUM, Strain/Indicator: TA100, Metabolic Activation: RAT, LIVER, S-9, AROCLOR 1254, Method: STANDARD PLATE): inactive; negative
mutagenic call (Test System: AMES SALMONELLA TYPHIMURIUM, Strain/Indicator: TA1535, Metabolic Activation: HAMSTER, LIVER, S-9 (10%), AROCLOR 1254, Method: PREINCUBATION): inactive; negative
mutagenic call (Test System: AMES SALMONELLA TYPHIMURIUM, Strain/Indicator: TA1535, Metabolic Activation: HAMSTER, LIVER, S-9 (30%), AROCLOR 1254, Method: PREINCUBATION): inactive; negative
mutagenic call (Test System: AMES SALMONELLA TYPHIMURIUM, Strain/Indicator: TA1535, Metabolic Activation: HAMSTER, LIVER, S-9, AROCLOR 1254, Method: STANDARD PLATE): inactive; negative
mutagenic call (Test System: AMES SALMONELLA TYPHIMURIUM, Strain/Indicator: TA1535, Metabolic Activation: NONE, Method: PREINCUBATION): inactive; negative
mutagenic call (Test System: AMES SALMONELLA TYPHIMURIUM, Strain/Indicator: TA1535, Metabolic Activation: NONE, Method: STANDARD PLATE): inactive; negative
mutagenic call (Test System: AMES SALMONELLA TYPHIMURIUM, Strain/Indicator: TA1535, Metabolic Activation: RAT, LIVER, S-9 (10%), AROCLOR 1254, Method: PREINCUBATION): inactive; negative
mutagenic call (Test System: AMES SALMONELLA TYPHIMURIUM, Strain/Indicator: TA1535, Metabolic Activation: RAT, LIVER, S-9 (30%), AROCLOR 1254, Method: PREINCUBATION): inactive; negative
mutagenic call (Test System: AMES SALMONELLA TYPHIMURIUM, Strain/Indicator: TA1535, Metabolic Activation: RAT, LIVER, S-9, AROCLOR 1254, Method: STANDARD PLATE): inactive; negative
mutagenic call (Test System: AMES SALMONELLA TYPHIMURIUM, Strain/Indicator: TA1537, Metabolic Activation: HAMSTER, LIVER, S-9, AROCLOR 1254, Method: STANDARD PLATE): inactive; negative
mutagenic call (Test System: AMES SALMONELLA TYPHIMURIUM, Strain/Indicator: TA1537, Metabolic Activation: NONE, Method: STANDARD PLATE): inactive; negative
mutagenic call (Test System: AMES SALMONELLA TYPHIMURIUM, Strain/Indicator: TA1537, Metabolic Activation: RAT, LIVER, S-9, AROCLOR 1254, Method: STANDARD PLATE): inactive; negative
mutagenic call (Test System: AMES SALMONELLA TYPHIMURIUM, Strain/Indicator: TA1538, Metabolic Activation: HAMSTER, LIVER, S-9, AROCLOR 1254, Method: STANDARD PLATE): inactive; negative
mutagenic call (Test System: AMES SALMONELLA TYPHIMURIUM, Strain/Indicator: TA1538, Metabolic Activation: NONE, Method: STANDARD PLATE): inactive; negative
mutagenic call (Test System: AMES SALMONELLA TYPHIMURIUM, Strain/Indicator: TA1538, Metabolic Activation: RAT, LIVER, S-9, AROCLOR 1254, Method: STANDARD PLATE): inactive; negative
mutagenic call (Test System: MOUSE LYMPHOMA, Strain/Indicator: L5178Y (TK+/TK-), Metabolic Activation: NONE, Method: SUSPENSION/PLATE): inactive; negative. reevaluation of results: negative
mutagenic call (Test System: MOUSE LYMPHOMA, Strain/Indicator: L5178Y (TK+/TK-), Metabolic Activation: RAT, LIVER, S-9, AROCLOR 1254, Method: SUSPENSION/PLATE): inactive; negative. reevaluation of results: negative

CC1(C)CCC[C@]2(C)[C@@H](C=O)C(C=O)=CC[C@@H]12
mutagenic call [1]: inactive; negative
mutagenic call [2]: inactive; negative
mutagenic call (Test System: AMES SALMONELLA TYPHIMURIUM, Strain/Indicator: TA2637, Metabolic Activation: NONE, Method: STANDARD PLATE): inactive; negative
mutagenic call (Test System: CHINESE HAMSTER V-79, Strain/Indicator: V-79/6-THIOGUANINE (HGPRT), Metabolic Activation: NONE): inactive; negative

CN(C(=O)c1csc([N+](=O)[O-])c1)c1ccccc1
mutagenic call [1]: active; positive
mutagenic call [2]: active; positive

C[C@@H](C(=O)OC(C)(C)C)N(N=[N+]=[N-])C(=O)OC(C)(C)C
mutagenic call [2]: active; positive

Nc1c(N=Nc2ccc([N+](=O)[O-])cc2)c(S(=O)(=O)O)cc2cc(S(=O)(=O)O)c(N=Nc3ccccc3)c(O)c12
mutagenic call [1]: active; positive
mutagenic call (Test System: AMES SALMONELLA TYPHIMURIUM, Strain/Indicator: TA98, Metabolic Activation: RAT, LIVER, S-9, PHENOBARBITAL, Method: STANDARD PLATE): active; positive
mutagenic call [2]: inactive; negative
mutagenic call (Test System: AMES SALMONELLA TYPHIMURIUM, Strain/Indicator: TA100, Metabolic Activation: RAT, LIVER, S-9, PHENOBARBITAL, Method: STANDARD PLATE): active; positive
